From patent US9302993B2, “8-hydroxy quinoline derivatives” (PRANA BIOTECHNOLOGY LIMITED, priority 2002, dated 2016)
Values joined by “and” are separate entries in the source; they are usually repeats but may differ in a detail not shown here. Equal entries are not always repeated. Where two headings read alike, the source gives them in different places.

Key:
Neuronal cortical cells = assay: Assay for test compound cytoxicity, MTS (Assay 3(d)); assay type: cell-based, mouse; conditions: BL6J×129sv, mouse, 4 days
[1] = Blood brain barrier penetration, brain perfusion (Assay 14); assay type: in vivo; conditions: rat brain perfusion, 50 μM, 1.5 minutes
Experimental: Assay 14. Blood Brain Barrier Penetration
A trace amount of ^14C-sucrose was added to each stock infusion solution (approx 0.01 μCi/mL) to act as Blood-Brain Barrier (BBB)-impermeable marker in order to assess the integrity of the BBB during each perfusion and to estimate the volume of the residual vascular space (RVS) in samples of brain tissue (ie: the volume of fluid remaining inside the lumen of blood vessels at the end of each perfusion).
The right common carotid artery was surgically exposed and cannulated for perfusion of the cerebral circulation. The right external carotid artery (which supplies tissues outside the skull) was then ligated distal to its bifurcation from the right common carotid artery so that all of the infusion solution would pass into the brain via the remaining right internal carotid artery. The heart was then exposed and transected immediately prior to the commencement of the infusion. […] The infusion cannula initially contained a 0.5 mL pre-wash of heparinised PBS (10 IU/ml) that acts to flush blood vessels and to prevent blood from clotting and blocking small vessels.
After 1.5 minutes, the infusion pump automatically stopped, the cannula was withdrawn from the carotid artery and a sample of the infusion solution (1-1.5 mL) was then collected from the tip of the infusion cannula. The brain was then dissected free and divided into 3 parts; the right hemisphere together with the right midbrain, the left hemisphere together with the left midbrain and the hindbrain (cerebellum, pons and brainstem). Only the right part of the brain was used for subsequent measurements because perfusion via the right internal carotid artery preferentially supplies the right hemisphere and right midbrain (the left hemisphere and hindbrain receive a variable collateral perfusion). The brain tissue samples from each animal were frozen at −30° C., homogenized and weighed aliquots analysed by LC-MS to give total brain concentration. The analysis was carried out using the Micromass Triple Quad instrument. The mobile phase consisted of an acetonitrile/water gradient (containing 0.05% Formic acid) and the column was a Phenomenex Luna CN.
Small aliquots from each brain tissue sample and the corresponding infusion solution were analysed by liquid scintillation counting to determine the level of ^14C-sucrose. The residual vascular space (RVS) in each brain tissue sample was calculated by dividing the measured concentration of sucrose in brain tissue (dpm/mg) by its concentration in the corresponding infusion solution (dpm/μL). This is the volume of fluid that remains inside blood vessels at the end of each perfusion. […]
A total of 5-6 brain perfusion experiments were performed for each of the test compounds and mean brain uptake ratios were calculated.

[2] = E Log D, chromatographic method (Assay 13); assay type: physicochemical; conditions: SUPELCOSIL LC-ABZ column with octanol saturated mobile phase, pH 7.4; read-out: E Log D7.4
Experimental: Effective Log D values were measured using a chromatographic method employing a SUPELCOSIL LC-ABZ column using an octanol saturated mobile phase at pH 7.4.

APP2576 transgenic mouse = assay: Transgenic mouse brain immunohistochemistry, plaque abundance (Assay 15); assay type: in vivo; conditions: for % difference from control (sham treated animal): plaque score; for Mean plaque score: scale 0 to 4
Source text: Assay 15. Transgenic Mouse Brain Immunohistochemistry
The APP2576 transgenic mouse (Hsiao et al., 1996) as referred to in Assay 11 were utilized in this assay. The contralateral formalin-fixed mouse brain tissue was coronally cut. Sections (10 μm) were taken from the corresponding sites and treated with 80% formic acid for antigen retrieval. The primary antibody used was monoclonal antibody 1E8, which recognizes epitopes between residues 18 and 22 of Aβ (SmithKline Beecham, UK). Immunoreactivity was developed with secondary antibody linked to horseradish peroxidase (using a 3,39-diaminobenzidinechromagen) (Dako) and alkaline phosphatase (using 5-bromo-4-chloro 3-indoxyl phosphate and nitroblue tetrazolium chloride chromagen) (Dako). Plaque abundance per section was assessed by two operators blinded to treatment according to the following scale:
1=plaques present but very sparse
2=several plaques present
3=numerous plaques visible in restricted areas
4=plaques abundant and not restricted to any particular area.
Intermediate values eg 2.5 were assigned where applicable.
Students' t ‘test was used for comparisons between groups.

[3] = Pharmacokinetic profile, IV and oral (Assay 16); assay type: in vivo; conditions: rat; for BA (%): oral, calculated using the truncated AUC; for clearance: read-out: Cltotal (mL/min/Kg), total plasma clearance
Experimental: Assay 16. Pharmacokinetic Profile
• Intravenous infusion of PBT-1033; 2 mg/Kg (1 mL of a 0.5 mg/mL solution in 7.5% DMSO with 0.1 m Captisol in Citrate Buffer adjusted to pH 3.0) was administered over 5 minutes to 2 rats and arterial blood was sampled up to 24 hours. • Oral administration of PBT-1033; 30 mg/Kg (as a suspension in CMC-SSV*) via administered via oral gavage to 2 rats and arterial blood was sampled up to 26 hours. * Standard Suspending Vehicle—0.5% w/v Na-Carboxymethyl Cellulose (CMC), 5% v/v benzyl alcohol, 4% v/v Tween 80 in 0.9% NaCl. • Plasma concentrations of PBT-1033 were determined by LCMS (LOQ 3.7 nM). For rat 020710-D, an overlapping peak was present for PBT-1033.
[formula] [formula] [formula] Calculations: • CLtotal=total plasma clearance after IV administration • Vdβ=volume of distribution during the elimination phase after IV administration • BA=oral bioavailability • AUCIV=area under the plasma concentration versus time profile from time zero to infinity after IV administration • AUCoral=area under the plasma concentration versus time profile from time zero to infinity after oral administration • β=terminal elimination rate constant after IV administration • The results are shown in FIG. 4(a). (b) PBT-1038 • Intravenous infusion of PBT-1038; (0.5 mg/Kg in 7.5% DMSO in Citrate Buffer pH 3.0) was administered over 5 minutes to 2 rats and arterial blood was sampled up to 24 hours. • Oral administration of PBT-1038; (30 mg/Kg as a 0.05% CMC suspension) via administered via oral gavage to 2 rats and arterial blood was sampled up to 24 hours. • Plasma concentrations of PBT-1038 were determined by MS (LOQ 3 nM)
(c) PBT-1050 • Intravenous infusion of PBT-1050; (2 mg/Kg in 7.5% DMSO in Citrate Buffer pH 3.0) was administered over 5 minutes to 2 rats and arterial blood was sampled up to 24 hours. • Oral administration of PBT-1050; (30 mg/Kg as a 0.05% CMC suspension) was administered via oral gavage to 2 rats and arterial blood was sampled up to 24 hours. • Plasma concentrations of PBT-1050 were determined by MS (LOQ 3 nM)
(d) PBT-1051 • Intravenous infusion of PBT-1051; 2 mg/Kg (1 mL of a 0.6 mg/mL solution in 7.5% DMSO in Citrate Buffer pH 3.0) was administered over 5 minutes to 2 rats and arterial blood was sampled up to 24 hours. • Oral administration of PBT-1051; 30 mg/Kg (as a suspension in CMC-SSV*) was administered via oral gavage to 2 rats and arterial blood was sampled up to 24 hours. * Standard Suspending Vehicle—0.5% w/v Na-Carboxymethyl Cellulose (CMC), 5% v/v benzyl alcohol, 4% v/v Tween 80 in 0.9% NaCl. • Plasma concentrations of PBT-1051 were determined by LCMS (LOQ 3.7 nM)

[4] = IV, individual rats, listed as PBT 1033, hydrochloride
[5] = PO 30 mg/Kg, individual rats, listed as PBT 1033, hydrochloride, 30 mg/kg
[6] = plasma, po, 30 mg/kg, PO 30 mg/Kg, Mean ± SD
[7] = plasma, po, 30 mg/kg, PO 30 mg/Kg, Mean ± SD, read-out: Tmax (converted)
[8] = plasma, po, 30 mg/kg, PO 30 mg/Kg, individual rats
[9] = plasma, po, 30 mg/kg, PO 30 mg/Kg, individual rats, read-out: Tmax (converted)
[10] = PO 30 mg/Kg, individual rats, listed as PBT 1050, 30 mg/kg
[11] = IV, individual rats, listed as PBT 1051, hydrochloride
[12] = PO 30 mg/Kg, individual rats, listed as PBT 1051, hydrochloride, 30 mg/kg

SMILES | Test Compound Cytoxicity 1 uM (Neuronal cortical cells) | Test Compound Cytoxicity 10 uM (Neuronal cortical cells) | Uptake Ratio [1] | chromatographic logD [2] | % difference from control (sham treated animal) (APP2576 transgenic mouse) | Mean plaque score (APP2576 transgenic mouse) | VdB ([3]; IV, Mean ± SD) | BA (%) ([3]; Mean ± SD) | Cmax ([3]; plasma, iv, 2 mg/kg, Mean ± SD) | Cmax [3, 6] | Tmax [3, 7] | Cmax [3, 8] | Tmax [3, 9] | Cmax ([3]; plasma, iv, Mean ± SD) | other results
CN(C)Cc1ccc2c(Cl)cc(Cl)c(O)c2n1.Cl [compound 1033, 5,7-Dichloro-2-dimethylaminomethyl-quinolin-8-ol hydrochloride] | 80 | 70 | >50% | 1.32 | −41% | 2.06 | 9.03 ± 3.07 L/kg | 25.25 ± 0.29% | 1.59 ± 1.26 µM | 1.69 ± 0.47 µM | 52.5 min | 2.02 µM | 45 min |  | Cltotal (mL/min/Kg), total plasma clearance [3, 4]: 145.69 mL/min/kg; Cmax [3, 4]: 0.7 µM and 2.48 µM; Tmax [3, 4]: 20 min and 5 min; VdB [3, 4]: 6.86 L/kg and 11.20 L/kg; t1/2 [3, 4]: 53.29 min; Cmax [3, 5]: 1.36 µM; Tmax [3, 5]: 60 min; BA (%) ([3]; individual rats, listed as PBT 1033, hydrochloride): 25.45% and 25.04%; clearance ([3]; plasma, iv, 2 mg/kg, IV, Mean ± SD): 118 ± 38.7 mL/min/kg; Tmax ([3]; plasma, iv, 2 mg/kg, IV, Mean ± SD, read-out: Tmax (converted)): 12.5 min; clearance ([3]; plasma, iv, 2 mg/kg, IV, individual rats): 91 mL/min/kg; half-life ([3]; plasma, iv, 2 mg/kg, Mean ± SD): 52.8 ± 0.73 min; half-life ([3]; plasma, iv, 2 mg/kg, individual rats): 52.2 min
Cn1cnc(CCNC(=O)c2ccc3c(Cl)cc(Cl)c(O)c3n2)c1 [compound 1050, 5,7-dichloro-8-hydroxyquinoline-2-carboxylic acid [2-(1-methyl-1H-imidazol-4-yl)-ethyl]-amide] | 93 | 88 | >50% | 2.98 |  |  |  |  | 25.4 ± 12.1 µM | 34 ± 38.2 µM | 82.5 min |  |  |  | Cmax ([3]; IV, individual rats, listed as PBT 1050): 33.9 µM and 16.9 µM; Cmax [3, 10]: 61 µM and 7.03 µM; Tmax [3, 10]: 45 min and 120 min
O=C(NCCc1c[nH]cn1)c1ccc2c(Cl)cc(Cl)c(O)c2n1 [compound 1038, 5,7-Dichloro-8-hydroxyquinoline-2-carboxylic acid [2-(1H-imidazol-4-yl)-ethyl]-amide] | 93 | 83 | >50% | 2.92 | −17% | 3.0 |  |  |  | 63.1 ± 7.57 µM | 45 min | 57.8 µM | 45 min | 5.45 ± 3.7 µM | Cmax ([3]; IV, individual rats, listed as PBT 1038): 8.06 µM and 2.84 µM; Tmax ([3]; PO 30 mg/Kg, individual rats): 45 min; Cmax ([3]; PO 30 mg/Kg, individual rats, listed as PBT 1038, 30 mg/kg): 68.5 µM
CCNCc1ccc2c(Cl)cc(Cl)c(O)c2n1.Cl [compound 1051, 5,7-dichloro-2-ethylaminomethyl-quinolin-8-ol hydrochloride] | 87 | 56 | >50% | 2.64 | −39% | 2.13 | 9.64 ± 0.77 L/kg | 27.75 ± 14.43% |  | 2.34 ± 1.18 µM | 45 min |  | 60 min | 2.99 ± 0.05 µM | Cltotal (mL/min/Kg), total plasma clearance [3, 11]: 135.58 mL/min/kg; Cmax [3, 11]: 3.03 µM; VdB [3, 11]: 10.19 L/kg and 9.10 L/kg; t1/2 [3, 11]: 46.52 min; Cmax [3, 12]: 3.18 µM and 1.5 µM; Tmax [3, 12]: 30 min; t1/2 [3, 12]: 365.72 min; BA (%) ([3]; individual rats, listed as PBT 1051, hydrochloride): 37.96% and 17.55%; clearance ([3]; plasma, iv, 2 mg/Kg, IV, Mean ± SD): 144 ± 12.5 mL/min/kg; clearance ([3]; plasma, iv, 2 mg/Kg, IV, individual rats): 153 mL/min/kg; half-life ([3]; plasma, iv, 2 mg/Kg, Mean ± SD): 46.3 ± 0.32 min; half-life ([3]; plasma, iv, 2 mg/Kg, individual rats): 46.1 min; Cmax ([3]; plasma, iv, individual rats): 2.96 µM; half-life [3, 6]: 283 ± 117 min; half-life [3, 8]: 200 min
